Experimental data reported in publication PMC8568133, “Evaluation of bisphenylthiazoles as a promising class for combating multidrug-resistant fungal infections” (PLoS ONE, 2021).
In brackets after ≈: the same amount, converted by molar mass.

Legend:
[1] = tested on: MRSA USA300; test: Broth microdilution MIC, initial antibacterial screening; assay type: cell-based, S. aureus; settings: Staphylococcus aureus; MRSA USA300; read-out: MIC
Procedure: (§1) The minimum inhibitory concentrations (MICs) of the tested compounds and control drugs against clinically-relevant bacterial strains were determined using the broth microdilution method, according to guidelines outlined by the Clinical and Laboratory Standards Institute (CLSI), or as described previously.
(§2) Initial screening of the bisphenylthiazoles against Gram-positive and Gram-negative bacteria. Bacterial strains, (except C. difficile that was grown anaerobically on brain heart infusion supplemented agar at 37° C for 48 hours), were grown aerobically overnight on tryptone soy agar plates at 37° C. Afterwards, a bacterial solution equivalent to 0.5 McFarland standard was prepared and diluted in cation-adjusted Mueller-Hinton broth (CAMHB) (for S. aureus, and E. coli) to achieve a bacterial concentration of about 5 × 10^5 CFU/mL. C. difficile was diluted in brain heart infusion supplemented broth, supplemented with yeast extract, hemin and vitamin K to achieve a bacterial concentration of about 5 × 10^5 CFU/mL. Compounds and control drugs were added in the first row of the 96 -well plates, and serially diluted with the corresponding media containing bacteria. Plates were then, incubated aerobi cally at 37° C for 18-20 hours (for S. aureus and E. coli). C. difficile was incubated anaerobically at 37° C for 48 hours. […]
(§3) the visual growth of bacteria.

[2] = tested on: C. difficile ATCC BAA1870; test: Broth microdilution MIC, initial antibacterial screening (anaerobic); assay type: cell-based, Clostridioides difficile; settings: Clostridioides difficile, ATCCBAA1870, read-out: MIC
Procedure: as §1, §2, §3

[3] = tested on: E. coli JW55031 (tolC-mutant); test: microbe, parasite or virus in culture; assay type: cell-based, Escherichia coli; settings: Escherichia coli
Procedure: as §1, §2, §3

[4] = tested on: E. coli BW25113 (wild-type); test: Broth microdilution MIC, initial antibacterial screening; assay type: cell-based, Escherichia coli; settings: Escherichia coli, read-out: MIC
Procedure: as §1, §2, §3

[5] = tested on: Candida albicans; test: Antifungal broth microdilution MIC (50% growth inhibition) and MFC; assay type: cell-based; settings: Candida albicans, C. albicans SS5314 (wild-type); read-out: MIC
Procedure: Serial dilutions (from 128 μg/mL to 0.06 μg/mL) of the tested compounds and control drugs (fluconazole, itraconazole and amphotericin) (in triplicates), were screened against clinical isolates of Candida albicans, Candida auris, Candida glabrata, Candida parapsilosis, Candida tropicalis, Candida krusei, Cryptococcus neoformans, Cryptococcus gattii and Aspergillus fumigatus species using the broth microdilution method according to the Clinical and Laboratory Standards Institute guidelines. MICs were determined as the lowest concentration of the compounds that inhibited the fungal growth by 50% after incubation at 35 °C for 24 h (for Candida and Aspergillus), or 48 h (for Cryptococcus). The minimum fungicidal concentration (MFC) of these compounds was tested by plating 4 μL from wells with no growth onto YPD agar plates. The plates were incubated at 37 °C for 24 hours before recording the MFC, which was categorized as the lowest concentration that reduced fungal growth by 99.9% [45]. The experiment was repeated three independent times.

| Structure (SMILES) | MIC [1] [µg/mL] | MIC [2] [µg/mL] | MIC [3] [µg/mL] | MIC [4] [µg/mL] | MIC [5] [µg/mL] | melting point [°C] |
| --- | --- | --- | --- | --- | --- | --- |
| Cc1nc(-c2ccc(-c3ccccc3)cc2)sc1-c1nnc(N[C@H]2CC[C@H](N)CC2)o1 [Compound 18, trans-N-{5-[2-((1,1’-Biphenyl)-4-yl)-4-methylthiazol-5-yl]-1,3,4-oxadiazol-2-yl}cyclo-hexane-1,4-diamine] | 32 (≈ 74.1 µM) | 8 (≈ 18.5 µM) | 32 (≈ 74.1 µM) | > 64 | 16 (≈ 37.1 µM) | 260 to 263 |
| Cc1nc(-c2ccc(-c3ccccc3)cc2)sc1-c1nnc(NCCO)o1 [Compound 19, 2-{[5-(2-((1,1’-Biphenyl)-4-yl)-4-methylthiazol-5-yl)-1,3,4-oxadiazol-2-yl]amino} ethan-1-ol] | > 64 | 64 (≈ 169 µM) | > 64 | > 64 | > 64 | 210 to 213 |
